In general, IC50 refers to the concentration that gives 50% inhibition. Low values mean greater potency, high ones weaker potency. By Ki is commonly meant the equilibrium dissociation constant of an inhibitor or competing ligand from its target. Higher therefore signals a looser hold on the target.

Results on seven compounds are retold here after ChEMBL document CHEMBL3588838, “A full conformational characterization of antiandrogen cortexolone-17-propionate and related compounds through theoretical calculations and nuclear magnetic resonance spectroscopy” (Medchemcomm, 2014).

For data set [1], the system named is Syrian golden hamster. Briefly: Antiandrogenic activity in female Syrian golden hamsters assessed as inhibition of testosterone propionate-induced flank organ enlargement at 400 ug per animal, topically relative to untreated control. The class given is functional, Mesocricetus auratus.
Data set [2] has as its system Plasma. Briefly: Drug metabolism in rat plasma assessed as cortexolone-21-propionate formation after up to 8 hrs by HPLC analysis in presence of 50 ug/ml dichlofvos. It counts as ADME, cell-free.
A short description of data set [3]: Drug metabolism in human plasma assessed as compound remaining after 1 hr by HPLC analysis. Particulars: read-out: Drug metabolism. It counts as ADME, cell-free.
The subject of data set [4] is Syrian golden hamster. Briefly: Antiandrogenic activity in female Syrian golden hamsters assessed as inhibition of testosterone propionate-induced flank organ enlargement at 100 ug per animal, topically relative to untreated control. It counts as functional, Mesocricetus auratus.
Data set [5] can be described thus: Drug metabolism in rat plasma assessed as compound remaining after 4 hrs by HPLC analysis. The class given is ADME, cell-free. Particulars: read-out: Drug metabolism.
The nature of data set [6]: Drug metabolism in human plasma assessed as compound remaining after 4 hrs by HPLC analysis. The class given is ADME, cell-free. Particulars: read-out: Drug metabolism.
Data set [7] deals with Rattus norvegicus. Briefly: Antiandrogenic activity in sc dosed male castrated Wistar rat assessed as inhibition of testosterone propionate-induced preputial gland organ effect. The class given is functional, organism-based.
Data set [8] can be described thus: Drug metabolism in human plasma assessed as compound remaining after 2 hrs by HPLC analysis. The class given is ADME, cell-free. Particulars: read-out: Drug metabolism.
The nature of data set [9]: Drug metabolism in rat plasma assessed as compound remaining after 15 mins by HPLC analysis. It counts as ADME, cell-free. The note with it: read-out: Drug metabolism.
Data set [10] can be described thus: Drug metabolism in rat plasma assessed as compound remaining after 0 mins by HPLC analysis. The class given is ADME, cell-free. The note with it: read-out: Drug metabolism.
Data set [11] is described as follows: Drug metabolism in rat skin homogenate assessed as compound remaining after 16 hrs by HPLC analysis. The class given is ADME, tissue-based, Zone of skin. Particulars: read-out: Drug metabolism.
Data set [12] is described as follows: Drug metabolism in rat plasma assessed as compound remaining after 30 mins by HPLC analysis. It counts as ADME, cell-free. Particulars: read-out: Drug metabolism.
Data set [13] can be described thus: Drug metabolism in rat skin homogenate assessed as compound remaining after 5 mins by HPLC analysis. It counts as ADME, tissue-based, Zone of skin. The note with it: read-out: Drug metabolism.
The nature of data set [14]: Drug metabolism in rat plasma assessed as compound remaining after 8 hrs by HPLC analysis. It counts as ADME, cell-free. The note with it: read-out: Drug metabolism.
For data set [15], the system named is Syrian golden hamster. The data set can be described thus: Antiandrogenic activity in female Syrian golden hamsters assessed as inhibition of testosterone propionate-induced flank organ enlargement at 200 ug per animal, topically relative to untreated control. It counts as functional, Mesocricetus auratus.
Data set [16] is described as follows: Drug metabolism in rat plasma assessed as compound remaining after 5 mins by HPLC analysis. It counts as ADME, cell-free. Particulars: read-out: Drug metabolism.
Data set [17] deals with Rattus norvegicus. The data set can be described thus: Glucocorticoid activity in male castrated Wistar rat assessed as reduction in adrenal weight at 100 mg/kg, sc. The class given is functional, organism-based.
Data set [18] in a line: Drug metabolism in human plasma assessed as compound remaining after 6 hrs by HPLC analysis. The note with it: read-out: Drug metabolism. It counts as ADME, cell-free.
The test system of data set [19] is Rattus norvegicus. The data set can be described thus: Antiandrogenic activity in sc dosed male castrated Wistar rat assessed as inhibition of testosterone propionate-induced ventral prostate gland organ effect. The class given is functional, organism-based.
In data set [20] the test system is Rattus norvegicus. Briefly: Antiandrogenic activity in sc dosed male castrated Wistar rat assessed as inhibition of testosterone propionate-induced seminal vesicles gland organ effect. It counts as functional, organism-based.
Data set [21] can be described thus: Drug metabolism in rat plasma assessed as compound remaining after 2 hrs by HPLC analysis. The class given is ADME, cell-free. The note with it: read-out: Drug metabolism.
Data set [22] in a line: Drug metabolism in rat skin homogenate assessed as compound remaining after 8 hrs by HPLC analysis. The class given is ADME, tissue-based, Zone of skin. The note with it: read-out: Drug metabolism.
A short description of data set [23]: Drug metabolism in rat plasma assessed as compound remaining after 1 hr by HPLC analysis. The class given is ADME, cell-free. Particulars: read-out: Drug metabolism.
Data set [24] has as its target T1, Androgen receptor (Homo sapiens, UniProt P10275).
T1 sequence (P10275 whole entry): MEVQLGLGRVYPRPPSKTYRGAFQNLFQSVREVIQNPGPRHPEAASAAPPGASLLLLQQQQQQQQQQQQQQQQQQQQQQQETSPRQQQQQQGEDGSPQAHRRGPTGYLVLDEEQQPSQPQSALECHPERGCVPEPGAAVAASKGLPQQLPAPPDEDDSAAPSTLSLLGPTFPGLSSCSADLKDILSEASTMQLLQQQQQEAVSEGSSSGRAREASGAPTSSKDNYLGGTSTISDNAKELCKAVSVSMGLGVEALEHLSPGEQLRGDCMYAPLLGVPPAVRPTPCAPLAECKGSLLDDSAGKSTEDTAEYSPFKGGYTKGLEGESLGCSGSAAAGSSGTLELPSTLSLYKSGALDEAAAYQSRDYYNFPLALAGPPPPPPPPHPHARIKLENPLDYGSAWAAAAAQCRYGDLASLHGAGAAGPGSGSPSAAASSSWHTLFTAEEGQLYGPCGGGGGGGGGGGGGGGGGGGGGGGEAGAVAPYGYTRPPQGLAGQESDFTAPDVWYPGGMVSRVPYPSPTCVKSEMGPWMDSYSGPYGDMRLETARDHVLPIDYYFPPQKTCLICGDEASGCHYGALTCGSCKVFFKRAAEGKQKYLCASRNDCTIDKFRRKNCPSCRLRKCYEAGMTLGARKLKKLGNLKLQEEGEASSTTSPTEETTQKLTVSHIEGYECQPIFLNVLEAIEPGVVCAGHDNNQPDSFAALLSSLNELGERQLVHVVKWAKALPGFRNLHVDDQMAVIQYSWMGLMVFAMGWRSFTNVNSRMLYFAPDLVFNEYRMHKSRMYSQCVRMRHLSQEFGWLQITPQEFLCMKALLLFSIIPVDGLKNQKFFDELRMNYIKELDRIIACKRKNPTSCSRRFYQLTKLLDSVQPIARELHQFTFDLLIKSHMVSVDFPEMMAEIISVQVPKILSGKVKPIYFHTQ
The data set can be described thus: Displacement of [3H]methyltrienolone from androgen receptor in human prostate cancer cells. The class given is cell-based, Cancer cell lines. Background: Displacement assays read how much labelled ligand stays bound in the presence of the test substance.

Data set [25] in a line: Drug metabolism in rat skin homogenate assessed as compound remaining after 30 mins by HPLC analysis. It counts as ADME, tissue-based, Zone of skin. The note with it: read-out: Drug metabolism.
The nature of data set [26]: Drug metabolism in rat skin homogenate assessed as compound remaining after 15 mins by HPLC analysis. It counts as ADME, tissue-based, Zone of skin. Particulars: read-out: Drug metabolism.
Data set [27] can be described thus: Drug metabolism in human plasma assessed as compound remaining after 0 mins by HPLC analysis. It counts as ADME, cell-free. Particulars: read-out: Drug metabolism.
In data set [28] the target is Steroid 5-alpha-reductase (Homo sapiens) (UniProt P18405+P31213+Q9H8P0). The data set can be described thus: Inhibition of 5alpha-reductase in human epidermis assessed as inhibition of [14C]testosterone to DHT after 24 hrs. It counts as protein assay.
The subject of data set [29] is Rattus norvegicus. Briefly: Glucocorticoid activity in male castrated Wistar rat assessed as reduction in thymus weight at 100 mg/kg, sc. It counts as functional, organism-based.
Data set [30] is described as follows: Drug metabolism in rat skin homogenate assessed as compound remaining after 0 mins by HPLC analysis. It counts as ADME, tissue-based, Zone of skin. The note with it: read-out: Drug metabolism.
Data set [31] is described as follows: Drug metabolism in human plasma assessed as compound remaining after 30 mins by HPLC analysis. The class given is ADME, cell-free. The note with it: read-out: Drug metabolism.
The nature of data set [32]: Drug metabolism in rat skin homogenate assessed as compound remaining after 24 hrs by HPLC analysis. It counts as ADME, tissue-based, Zone of skin. The note with it: read-out: Drug metabolism.
Data set [33] in a line: Drug metabolism in rat skin homogenate assessed as compound remaining after 4 hrs by HPLC analysis. The class given is ADME, tissue-based, Zone of skin. Particulars: read-out: Drug metabolism.
A short description of data set [34]: Drug metabolism in rat skin homogenate assessed as compound remaining after 1 hr by HPLC analysis. Particulars: read-out: Drug metabolism. The class given is ADME, tissue-based, Zone of skin.
Data set [35] in a line: Drug metabolism in rat skin homogenate assessed as compound remaining after 2 hrs by HPLC analysis. It counts as ADME, tissue-based, Zone of skin. Particulars: read-out: Drug metabolism.

Active and inactive are the calls of the source. No cut-off for these calls is given here.

Steroid 5-alpha-reductase (Homo sapiens), sequence (P18405 whole entry, looked up): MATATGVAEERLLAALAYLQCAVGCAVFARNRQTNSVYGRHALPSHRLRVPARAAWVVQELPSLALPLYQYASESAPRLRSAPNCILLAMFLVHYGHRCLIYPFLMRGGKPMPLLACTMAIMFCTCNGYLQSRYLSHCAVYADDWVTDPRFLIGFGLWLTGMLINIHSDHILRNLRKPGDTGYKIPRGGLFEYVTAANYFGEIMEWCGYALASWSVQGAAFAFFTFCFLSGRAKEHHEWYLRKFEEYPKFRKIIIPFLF
Steroid 5-alpha-reductase (Homo sapiens), sequence (P31213 whole entry, looked up): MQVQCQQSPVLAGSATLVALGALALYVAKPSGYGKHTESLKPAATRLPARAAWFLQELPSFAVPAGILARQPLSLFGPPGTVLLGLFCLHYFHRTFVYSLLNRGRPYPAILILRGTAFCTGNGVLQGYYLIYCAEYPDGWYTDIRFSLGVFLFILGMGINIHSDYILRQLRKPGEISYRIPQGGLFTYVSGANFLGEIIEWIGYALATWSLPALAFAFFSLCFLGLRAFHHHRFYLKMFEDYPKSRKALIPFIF
Steroid 5-alpha-reductase (Homo sapiens), sequence (Q9H8P0 whole entry, looked up): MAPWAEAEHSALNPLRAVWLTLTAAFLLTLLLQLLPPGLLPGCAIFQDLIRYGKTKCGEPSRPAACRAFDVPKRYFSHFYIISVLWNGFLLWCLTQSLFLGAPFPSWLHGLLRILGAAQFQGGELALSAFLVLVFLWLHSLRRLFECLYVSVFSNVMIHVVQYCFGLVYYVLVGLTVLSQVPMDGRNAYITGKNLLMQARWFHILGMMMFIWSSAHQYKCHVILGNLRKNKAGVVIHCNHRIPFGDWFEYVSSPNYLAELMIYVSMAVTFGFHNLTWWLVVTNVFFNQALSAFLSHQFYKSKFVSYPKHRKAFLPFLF

As to `CC(C)(C)NC(=O)[C@H]1CC[C@H]2[C@@H]3CC[C@H]4NC(=O)C=C[C@]4(C)[C@H]3CC[C@]12C` [FINASTERIDE], the “inhibition (INH)” value in [1] is reported as 71%.
Consider `CCC(=O)OCC(=O)[C@@]1(O)CC[C@H]2[C@@H]3CCC4=CC(=O)CC[C@]4(C)[C@H]3CC[C@@]21C`, for which the Drug metabolism entry in data set [2] is “metabolite_detected”. Also, the “inhibition (INH)” value in data set [1] was 29%.
For the compound `CCC(=O)O[C@]1(C(=O)CO)CC[C@H]2[C@@H]3CCC4=CC(=O)CC[C@]4(C)[C@H]3CC[C@@]21C` [CLASCOTERONE], the remaining at 1 h amounted to 85.2% in data set [3], 60% in data set [23] and 89.5% in [34]. For the same compound, the “inhibition (INH)” value in data set [4] was 40%; in data set [1], 84%; in data set [15] it was 78%. The remaining at 4 h came out at 20% in data set [5], 30.3% in data set [6] and 59.5% in data set [33]. For the same compound, the result in data set [7], in [19] and in data set [20] was inactive. In addition, the remaining at 2 h in data set [8] stood at 67.2%; in [21], 50%; in [35], 69.5%. The remaining at 0.25 h in data set [9] turned out to be 90%; in data set [26], 99%. Moreover, the remaining at 0 h is 100% in data set [10], 99.6% in data set [27] and 99% in data set [30]. Also, in [11], the remaining at 16 h came to 44.8%. Also, the remaining at 0.5 h in data set [12] was 80%; in [25] it was 98.5%; in [31] it was 93.2%. The remaining at 5 min turned out to be 99% in data set [13] and 90% in [16]. Moreover, the remaining at 8 h was 0% in data set [14] and 49.5% in data set [22]. The inhibition result in [17] and in data set [29] was “Active” throughout. Further, in [18], the remaining at 6 h amounted to 11.3%. Besides, in data set [24], the IC50 turned out to be 50 nM. Besides, in data set [24], the affinity, expressed as Ki, was 40 nM. Besides, the inhibition entry in [28] was “inactive”. The remaining at 24 h in data set [32] was determined as 44.8%.
As for `C[C@]12CCC(=O)C=C1CC[C@@H]1[C@@H]2CC[C@@]2(C)[C@H]1CC[C@]2(O)C(=O)CO` [CORTODOXONE], the “inhibition (INH)” value in data set [1] was 0%.
The same measure, in the same setting: for `CCC(=O)OCC(=O)[C@@]1(OC(=O)CC)CC[C@H]2[C@@H]3CCC4=CC(=O)CC[C@]4(C)[C@H]3CC[C@@]21C` the value was 57%.
With `CC(=O)O[C@]1(C(C)=O)CC[C@H]2[C@@H]3C=C(Cl)C4=CC(=O)[C@@H]5C[C@@H]5[C@]4(C)[C@H]3CC[C@@]21C` [CYPROTERONE ACETATE], the “inhibition (INH)” value in data set [1] turned out to be 93%.
Turning to `CCCC(=O)O[C@]1(C(=O)CO)CC[C@H]2[C@@H]3CCC4=CC(=O)CC[C@]4(C)C3=CC[C@@]21C`, the “inhibition (INH)” value in data set [1] stood at 85%.
